Reference: ChEMBL document CHEMBL4364288, “Discovery of carbazole derivatives as novel allosteric MEK inhibitors by pharmacophore modeling and virtual screening” (Eur J Med Chem, 2019)

Experiments:
[1] = test system: A-375; assay: cells; format: functional, cell-based; settings: Homo sapiens, A-375, 72 h
Description: Antiproliferative activity against human A375 cells assessed as cell viability incubated for 72 hrs by cell titer-glo luminescent cell viability assay (Rvb = > 100 uM)

[2] = test system: Sf21; settings: Homo sapiens, at 20 µM
Description: Inhibition of recombinant N-terminal GST-tagged human BRAF (433-726 residues) expressed in baculovirus infected sf21 insect cells/recombinant human full length N-terminal GST-tagged MEK1 expressed in Escherichia coli cascading pathway assessed as reduction in MEK1 phosphorylation at 20 uM incubated for 2 hrs by HTRF assay relative to control

[3] = species on record: Homo sapiens; settings: at 2 µM
Description: Inhibition of GST-tagged MEK1/ERK2 (unknown origin) cascading pathway assessed as reduction in ERK2 phosphorylation at 2 uM incubated for 2 hrs by HTRF assay relative to control

[4] = test system: A549; assay: cells; format: functional, cell-based; settings: Homo sapiens, A549, 72 h
[5] = test system: Sf21; settings: Homo sapiens, at 2 µM
Description: Inhibition of recombinant N-terminal GST-tagged human BRAF (433-726 residues) expressed in baculovirus infected sf21 insect cells/recombinant human full length N-terminal GST-tagged MEK1 expressed in Escherichia coli cascading pathway assessed as reduction in MEK1 phosphorylation at 2 uM incubated for 2 hrs by HTRF assay relative to control

[6] = species on record: Homo sapiens; settings: at 20 µM
Description: Inhibition of GST-tagged MEK1/ERK2 (unknown origin) cascading pathway assessed as reduction in ERK2 phosphorylation at 20 uM incubated for 2 hrs by HTRF assay relative to control

[7] = test system: HL-60; assay: cells; format: functional, cell-based; settings: Homo sapiens, HL-60, 72 h
[8] = test system: HEK293; assay: cells; format: ADME, cell-based; settings: Homo sapiens, HEK293, 72 h
[9] = Inhibition of BRAF/MEK1 (unknown origin) cascading pathway assessed as reduction in MEK1 phosphorylation incubated for 2 hrs in presence of 300 uM ATP by HTRF assay; parameters: species or system Homo sapiens
[10] = Inhibition of BRAF/MEK1 (unknown origin) cascading pathway assessed as reduction in MEK1 phosphorylation incubated for 2 hrs in presence of 100 uM ATP by HTRF assay; parameters: species or system Homo sapiens
[11] = Inhibition of GST-tagged MEK1/ERK2 (unknown origin) cascading pathway assessed as reduction in ERK2 phosphorylation incubated for 2 hrs by HTRF assay relative to control; parameters: species or system Homo sapiens
[12] = biological target: Dual specificity mitogen-activated protein kinase kinase 1 (Homo sapiens) (UniProt Q02750); assay: Inhibition of recombinant full length GST-tagged human MEK1 expressed in baculovirus infected sf9 insect cells at 2 uM measured after 30 to 90 mins by HTRF based Lanthascreen Eu kinase binding assay relative to AZD6244
[13] = biological target: Dual specificity mitogen-activated protein kinase kinase 1 (Homo sapiens) (UniProt Q02750); assay: Inhibition of recombinant full length GST-tagged human MEK1 expressed in baculovirus infected sf9 insect cells at 20 uM measured after 30 to 90 mins by HTRF based Lanthascreen Eu kinase binding assay relative to AZD6244

Dual specificity mitogen-activated protein kinase kinase 1 (Homo sapiens), sequence (Q02750 whole entry): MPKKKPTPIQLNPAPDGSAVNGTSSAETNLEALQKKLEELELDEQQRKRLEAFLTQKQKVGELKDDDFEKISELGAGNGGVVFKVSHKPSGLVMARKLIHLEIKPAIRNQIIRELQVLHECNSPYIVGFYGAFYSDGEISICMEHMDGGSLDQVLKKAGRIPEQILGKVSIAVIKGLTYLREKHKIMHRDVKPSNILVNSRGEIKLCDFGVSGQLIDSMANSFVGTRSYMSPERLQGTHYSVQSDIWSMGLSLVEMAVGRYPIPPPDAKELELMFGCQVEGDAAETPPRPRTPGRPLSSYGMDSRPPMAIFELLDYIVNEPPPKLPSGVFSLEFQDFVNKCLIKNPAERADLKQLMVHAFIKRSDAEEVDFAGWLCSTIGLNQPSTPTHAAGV

Structure (SMILES)	IC50 [1]	IC50 [4]	inhibition [6]	IC50 [7]	inhibition [2]	IC50 [8]	other results
N#CC(=C(/N)Sc1ccccc1N)/C(C#N)=C(\N)Sc1ccccc1N	1.1 µM	32.2 µM	80.9%		87.4%		inhibition [3]: 26.9%; inhibition [5]: 41.7%
Cc1ccc(S(=O)(=O)Nc2cc(SCC(=O)O)c(O)c3ccccc23)cc1	7.7 µM	21.6 µM	32%	17.2 µM	56.1%	8.9 µM	IC50 [11]: > 160 µM; inhibition [12]: 32.1%; inhibition [3]: 3.9%; inhibition [5]: 4.4%; inhibition [13]: 90.3%
CC(=O)Nc1ccc(S(=O)(=O)Nc2cc(OCc3nnc(C)o3)cc3c2[nH]c2ccccc23)cc1	43.7 µM	> 100 µM	20.6%	> 100 µM	50.7%	> 100 µM	
CCOC(=O)COc1cc(NS(=O)(=O)c2ccc(NC(C)=O)cc2)c2[nH]c3ccccc3c2c1			18.2%		27.4%		
CC(=O)Nc1ccc(S(=O)(=O)Nc2cc(SCC(=O)O)cc3c2[nH]c2ccccc23)cc1			27.7%		44.2%		
Cc1ccc(S(=O)(=O)Nc2cc(OCc3nc(C)no3)cc3c2[nH]c2ccccc23)cc1			37.8%		38.2%		
COc1cc(/C=C2\C(=O)NN(c3ccc(I)cc3)C2=O)ccc1OC(C)=O			35%		57%		IC50 [11]: 63.1 µM; inhibition [12]: 11.9%; inhibition [3]: 5.1%; inhibition [5]: 6.3%; inhibition [13]: 60.1%
Cc1ccc(S(=O)(=O)Nc2cc(SCC(=O)O)c(O)c3c2[nH]c2ccccc23)cc1	14.7 µM	12.8 µM	35.6%	26.3 µM	43.7%	> 100 µM	
Cc1ccc(S(=O)(=O)Nc2cc(S(=O)(=O)CC(=O)O)cc3c2[nH]c2ccccc23)cc1			35.5%		45%		
CCOC(=O)CSc1cc(NS(=O)(=O)c2ccc(NC(C)=O)cc2)c2[nH]c3ccccc3c2c1			21.8%		35.8%		
CC(=O)Nc1cccc(S(=O)(=O)Nc2cc(OCc3nnc(C)o3)cc3c2[nH]c2ccccc23)c1			-10%		29.5%		

Now from value to molecule, other results behind:

IC50 [1]	IC50 [4]	inhibition [6]	IC50 [7]	Structure (SMILES)	inhibition [2]	IC50 [8]	other results
70.7 µM	70.7 µM	28.9%	> 100 µM	CCOC(=O)COc1cc(NS(=O)(=O)c2ccc(C)cc2)c2[nH]c3ccccc3c2c1	56.6%	> 100 µM	
		45.1%		Cc1ccc(S(=O)(=O)Nc2cc(OCc3nnn[nH]3)cc3c2[nH]c2ccccc23)cc1	46.8%		
		27.9%		Cc1ccc(S(=O)(=O)Nc2cc(OCC(N)=O)cc3c2[nH]c2ccccc23)cc1	41.9%		
> 100 µM	> 100 µM	21.5%	> 100 µM	Cc1ccc(S(=O)(=O)Nc2cc(OCC(=O)O)cc3c2[nH]c2ccccc23)cc1	65.8%	> 100 µM	IC50 [9]: 12.1 µM; IC50 [10]: 13.2 µM
> 100 µM	> 100 µM	21.4%	> 100 µM	Cc1ccc(S(=O)(=O)Nc2cc(SCC(=O)O)cc3c2[nH]c2ccccc23)cc1	67.2%	> 100 µM	
		21.4%		Cc1ccc(S(=O)(=O)Nc2cc(OCc3nnc(N)o3)cc3c2[nH]c2ccccc23)cc1	33%		
		39.2%		CCOC(=O)CSc1cc(NS(=O)(=O)c2ccc(C)cc2)c2[nH]c3ccccc3c2c1	45.2%		
		25.8%		Cc1ccc(S(=O)(=O)Nc2cc(OCc3nnc(C)o3)cc3c2[nH]c2ccccc23)cc1	48.6%		
